Assay results from PMC11528066, “Noninvasive Monitoring of Programmed Death-Ligand 2 Expression with Positron Emission Tomography using ^68Ga-labeled Peptide Antagonist in Preclinical and Exploratory Human Studies” (Research, 2024).
Where two headings read alike, the source gives them in different places. Peptide text beside a SMILES is read from it. * marks the point of attachment. NOTA = O=C(O)CN1CCN(CC(=O)O)CCN(CC(=O)*)CC1; AEEEA = NCCOCCOCCOCC(=O)O

Tests used:
[1] = tested on: A549-PD-L2 xenograft models; test: Static PET/CT imaging with blocking; type: in vivo, BALB/C nude mice; settings: 60 min, pretreatment i.v. with excess HN11-1 / HN11-2 (10 mg/kg), n = 3
Description: The static PET/CT imaging in A549 and A549-PD-L2 xenograft models after injection of 5.55 to 7.4 MBq (150 to 200 μCi) of [^68Ga]Ga-HN11-1 or [^68Ga]Ga-HN11-2 were acquired at 60 min. In the [^68Ga]Ga-HN11-1 + block or [^68Ga]Ga-HN11-2 + block groups, the xenograft models underwent pretreatment via intravenous injection of HN11-1 or HN-2 (10 mg/kg) before PET/CT imaging. Then, ROIs were delineated for each group. After imaging, tumor tissues from both the A549 and A459-PD-L2 xenograft tumors were extracted, and the PD-L2 expression was tested by IHC. For the pharmacokinetics study, healthy BALB/C mouse received an intravenous injection of 5.55 MBq (150 μCi) of [^68Ga]Ga-HN11-1 and [^68Ga]Ga-HN11-2. Measure the activity of blood samples (%ID/g, mean ± SD) at the corresponding time points, and the time-activity curve was plotted. Subsequently, pharmacokinetic parameters were tested using the noncompartmental model in Phoenix WinNonlin 8.1 software (Certara, USA).

[2] = Biodistribution (γ-counter); type: in vivo, BALB/C nude mice; settings: male, BALB/C nude, mouse, iv, total radioactivity, mean ± SD, n = 3; for tissue uptake at 10 min / tissue to tissue ratio at 10 min: 10 min p.i.; for tissue uptake at 0.5 h / tissue to tissue ratio at 0.5 h: 30 min p.i.; for tissue uptake at 1.5 h / tissue to tissue ratio at 1.5 h: 90 min p.i.
Description: Micro-PET imaging was conducted using an Inveon PET scanner (Siemens, Germany). Dynamic PET examine were acquired over the first 60 min following the simultaneous injection of 7.4 to 9.25 MBq (200 to 250 μCi) of [^68Ga]Ga-HN11-1 and [^68Ga]Ga-HN11-2. After reconstructing the images and delineating the regions of interest (ROIs), time-radioactivity curves were plotted to obtain the Tumor/Muscle (T/M) ratios. %ID/g represents the percentage of the injected dose of the radiotracer that accumulates in a specific tissue per gram of tissue weight. For the biodistribution study, the xenograft models received an intravenous injection of 3.7 to 5.5 MBq (100 to 150 μCi) of [^68Ga]Ga-HN11-1. After the designated period (10, 30, 60, and 90 min), the mice were euthanized, and important tissues and organs were dissected and collected. The samples were counted using the γ-counter for determining the %ID/g, presented as mean ± standard deviation (SD).
A549 cell lines were provided by the China Center for Type Culture Collection (CCTCC) and cultured in RPMI-1640 medium supplemented with 10 % fetal bovine serum and 100 U/mL penicillin-streptomycin. The lentivirus system was implemented to introduce PD-L2 (PDCD1LG2) over-expressed cDNA into the A549 cells. The viral vectors were produced in 293T cells and co-transfected with the psAX2, pMD2G and PD-L2 plasmids. A549 cells transduced with the vectors were selectively grown in 1.6 μg/mL puromycin. Transfection efficiency was identified by WB and real-time quantitative PCR. All the cells were cultured in an incubator at 37° C with 5 % CO2 atmosphere. A549 and A549-PD-L2 cells (5 × 10^6, 200 μL)were subcutaneously implanted into the right shoulder of BALB/C nude mice (male, 4-6 weeks), respectively. When the tumors reached to 5 - 8 mm in diameter, the mice were subjected to in vivo and ex vivo studies. All the mice were purchased from the Laboratory Animal Center of Central South University.

[3] = large intestine, read-out: Large intestine uptake
[4] = muscle, read-out: Muscle uptake
[5] = small intestine, read-out: Small intestine uptake
[6] = tumor and blood, read-out: Tumor/Blood ratio
[7] = tumor and brain, read-out: Tumor/Brain ratio
[8] = tumor and heart, read-out: Tumor/Heart ratio
[9] = tumor and liver, read-out: Tumor/Liver ratio
[10] = tumor and lung, read-out: Tumor/Lung ratio
[11] = tumor and muscle, read-out: Tumor/Muscle ratio

tissue uptake at 10 min ([2]; bone, read-out: Bone uptake): 0.68 ± 0.06 %ID/g
tissue uptake at 0.5 h ([2]; bone, read-out: Bone uptake): 0.6 ± 0.03 %ID/g
tissue uptake at 1 h ([2]; bone, 60 min HN11-1 Block, read-out: Bone uptake): 0.43 ± 0.07 %ID/g
tissue uptake at 1 h ([2]; bone, 60 min p.i., read-out: Bone uptake): 0.41 ± 0.08 %ID/g
tissue uptake at 1.5 h ([2]; bone, read-out: Bone uptake): 0.31 ± 0.06 %ID/g
tissue uptake at 10 min ([2]; brain, read-out: Brain uptake): 0.17 ± 0.03 %ID/g
tissue uptake at 0.5 h ([2]; brain, read-out: Brain uptake): 0.12 ± 0.03 %ID/g
tissue uptake at 1 h ([2]; brain, 60 min HN11-1 Block, read-out: Brain uptake): 0.07 ± 0.01 %ID/g
tissue uptake at 1 h ([2]; brain, 60 min p.i., read-out: Brain uptake): 0.07 ± 0.01 %ID/g
tissue uptake at 1.5 h ([2]; brain, read-out: Brain uptake): 0.03 ± 0.01 %ID/g
tissue uptake at 10 min ([2]; kidney, read-out: Kidney uptake): 55.6 ± 6.6 %ID/g
tissue uptake at 10 min [2, 3]: 1.02 ± 0.06 %ID/g
tissue uptake at 0.5 h [2, 3]: 0.48 ± 0.09 %ID/g
tissue uptake at 1 h ([2]; large intestine, 60 min HN11-1 Block, read-out: Large intestine uptake): 0.23 ± 0.05 %ID/g
tissue uptake at 1 h ([2]; large intestine, 60 min p.i., read-out: Large intestine uptake): 0.21 ± 0.05 %ID/g
tissue uptake at 1.5 h [2, 3]: 0.1 ± 0.01 %ID/g
tissue uptake at 10 min [2, 4]: 0.89 ± 0.02 %ID/g
tissue uptake at 0.5 h [2, 4]: 0.69 ± 0.07 %ID/g
tissue uptake at 1 h ([2]; muscle, 60 min HN11-1 Block, read-out: Muscle uptake): 0.56 ± 0.04 %ID/g
tissue uptake at 1 h ([2]; muscle, 60 min p.i., read-out: Muscle uptake): 0.56 ± 0.09 %ID/g
tissue uptake at 1.5 h [2, 4]: 0.15 ± 0.03 %ID/g
tissue uptake at 10 min [2, 5]: 0.86 ± 0.09 %ID/g
tissue uptake at 0.5 h [2, 5]: 0.62 ± 0.04 %ID/g
tissue uptake at 1 h ([2]; small intestine, 60 min HN11-1 Block, read-out: Small intestine uptake): 0.34 ± 0.04 %ID/g
tissue uptake at 1 h ([2]; small intestine, 60 min p.i., read-out: Small intestine uptake): 0.21 ± 0.02 %ID/g
tissue uptake at 1.5 h [2, 5]: 0.16 ± 0.05 %ID/g
tissue to tissue ratio at 10 min [2, 6]: 0.58 ± 0.15
tissue to tissue ratio at 0.5 h [2, 6]: 2.66 ± 0.47
tissue to tissue ratio at 1 h ([2]; tumor and blood, 60 min p.i., read-out: Tumor/Blood ratio): 6.41 ± 0.98
tissue to tissue ratio at 1.5 h [2, 6]: 2.58 ± 0.52
tissue to tissue ratio at 1 h ([2]; tumor and blood, with HN11-1 (block; amount not stated), 60 min HN11-1 Block, read-out: Tumor/Blood ratio): 1.94 ± 0.67
tissue to tissue ratio at 10 min [2, 7]: 10.3 ± 3.45
tissue to tissue ratio at 0.5 h [2, 7]: 30.9 ± 8.94
tissue to tissue ratio at 1 h ([2]; tumor and brain, 60 min p.i., read-out: Tumor/Brain ratio): 31.9 ± 7.97
tissue to tissue ratio at 1.5 h [2, 7]: 12.3 ± 2.45
tissue to tissue ratio at 1 h ([2]; tumor and brain, with HN11-1 (block; amount not stated), 60 min HN11-1 Block, read-out: Tumor/Brain ratio): 9.41 ± 2.19
tissue to tissue ratio at 10 min [2, 8]: 1.15 ± 0.19
tissue to tissue ratio at 0.5 h [2, 8]: 4.13 ± 0.21
tissue to tissue ratio at 1 h ([2]; tumor and heart, 60 min p.i., read-out: Tumor/Heart ratio): 12.7 ± 2.22
tissue to tissue ratio at 1.5 h [2, 8]: 3 ± 0.15
tissue to tissue ratio at 1 h ([2]; tumor and heart, with HN11-1 (block; amount not stated), 60 min HN11-1 Block, read-out: Tumor/Heart ratio): 3.68 ± 1.43
tissue to tissue ratio at 10 min [2, 9]: 0.56 ± 0.07
tissue to tissue ratio at 0.5 h [2, 9]: 2.61 ± 0.82
tissue to tissue ratio at 1 h ([2]; tumor and liver, 60 min p.i., read-out: Tumor/Liver ratio): 2.53 ± 0.75
tissue to tissue ratio at 1.5 h [2, 9]: 2.13 ± 1.27
tissue to tissue ratio at 1 h ([2]; tumor and liver, with HN11-1 (block; amount not stated), 60 min HN11-1 Block, read-out: Tumor/Liver ratio): 0.57 ± 0.27
tissue to tissue ratio at 10 min [2, 10]: 1.04 ± 0.22
tissue to tissue ratio at 0.5 h [2, 10]: 3.69 ± 0.24
tissue to tissue ratio at 1 h ([2]; tumor and lung, 60 min p.i., read-out: Tumor/Lung ratio): 3.01 ± 0.53
tissue to tissue ratio at 1.5 h [2, 10]: 1.05 ± 0.24
tissue to tissue ratio at 1 h ([2]; tumor and lung, with HN11-1 (block; amount not stated), 60 min HN11-1 Block, read-out: Tumor/Lung ratio): 0.69 ± 0.23
tissue to tissue ratio at 10 min [2, 11]: 1.82 ± 0.32
tissue to tissue ratio at 0.5 h [2, 11]: 5.11 ± 0.25
tissue to tissue ratio at 1 h ([2]; tumor and muscle, 60 min p.i., read-out: Tumor/Muscle ratio): 4.11 ± 1.25
tissue to tissue ratio at 1.5 h [2, 11]: 2.66 ± 0.43
tissue to tissue ratio at 1 h ([2]; tumor and muscle, with HN11-1 (block; amount not stated), 60 min HN11-1 Block, read-out: Tumor/Muscle ratio): 1.11 ± 0.27
tissue uptake at 10 min ([2]; tumor, read-out: Tumor uptake): 1.61 ± 0.28 %ID/g
tissue uptake at 0.5 h ([2]; tumor, read-out: Tumor uptake): 3.52 ± 0.35 %ID/g
tissue uptake at 1 h ([2]; tumor, 60 min HN11-1 Block, read-out: Tumor uptake): 0.63 ± 0.18 %ID/g
tissue uptake at 1 h ([2]; tumor, 60 min p.i., read-out: Tumor uptake): 2.2 ± 0.3 %ID/g
tissue uptake at 1.5 h ([2]; tumor, read-out: Tumor uptake): 0.39 %ID/g
SMILES: CC[C@H](C)[C@H](NC(=O)[C@H](CCCNC(=N)N)NC(=O)CNC(=O)[C@H](CCC(=O)O)NC(=O)[C@H](CC(N)=O)NC(=O)[C@H](Cc1ccc(O)cc1)NC(=O)[C@H](CCCNC(=N)N)NC(=O)[C@H](Cc1ccc(O)cc1)NC(=O)[C@H](Cc1c[nH]cn1)NC(=O)COCCOCCOCCNC(=O)CN1CCN(CC(=O)O)CCN(CC(=O)O)CC1)C(=O)N[C@@H](CCCNC(=N)N)C(=O)N[C@@H](CC(N)=O)C(=O)O [[^68Ga]Ga-HN11-1, metal not drawn] ({NOTA-AEEEA}-HYRYNEGRIRN-OH)
tumor uptake after blocking [1]: 0.74 ± 0.03 %ID/g
